Results reported in US7235584B2, “Non-psychotropic cannabinoids” (Pharmos Corporation, priority 2000, dated 2007).

What was measured:
cannabimimetic activity = conditions: in vivo; cited from earlier work
NMDA receptor = experiment: [3H]MK-801 displacement radioligand binding, rat forebrain membranes; conditions: for IC50: displacement of [3H]MK-801, rat forebrain membranes, read-out: NMDA BINDING IC50
Method: The identification of possible recognition sites for PRS-211 analogs was carried out by measuring the ability of these PRS-211 analogs to inhibit the binding of MK-801 to rat forebrain membranes.
Brains were removed from Sprague-Dawley rats no more than 5 min after decapitation. Membrane preparations were isolated according to a procedure described previously (Eshhar et al., Brain Res. 476:57, 1989). Prior to radioligand binding measurements, endogenous glutamate present in membranes was removed from the preparation by subjecting the membranes to 3–4 successive washings in 10 mM Tris HCl pH 7.2, performed at 4° C.
The specific binding of the new analogs to NMDA receptors was determined by their ability to displace [^3H]MK-801 from NMDA receptor in rat forebrain preparations. Specifically, rat-forebrain membranes (0.1 mg) were incubated for 2 hours at room temperature with 10 nM of tritiated MK-801 and with the PRS-211 compounds at 3 doses each. Non-specific binding was determined by the use of 0.1 mM MK-801. Following the incubation, bound radioligand was separated from unbound by filtration through GF/B filters. The filters were counted in a β-counter and log of analog concentrations versus % of [^3H]MK-801 specific binding was plotted. The IC50 was calculated from this plot.
Binding of [^3H]MK-801 to membranes was carried out in the presence of 30 μM glycine and 10 μM L-glutamate. Membranes (250 μg protein) were resuspended in 50 mM tris-acetate pH 7.4 buffer and incubated with 10 nM [^3H]MK-801, either alone or in the presence of PRS-211 compounds at 0.1–100 μM concentrations for three hours at room temperature (RT). Reaction buffers used in the different radioligand binding studies contained 10% of an ethanol/Emulphor 620/deionized water mixture. The ratio (by volume) of the respective components in the mixture was 20/3/57. This mixture is required for solubilizing PRS-211 compounds at concentrations above 30 μM. Reaction volume was 1 ml. Non-specific [^3H]MK-801 binding was determined in the presence of 100 μM unlabeled MK-801.
Concentration dependence of certain PRS-211 analogs on inhibition of [^3H]MK-801 binding is illustrated in FIG. 1.

TNFα = experiment: Inhibition of TNFα in LPS-activated macrophage cell cultures (ELISA); assay type: cell-based
Method: Specific aspects of the inflammatory response cascade are mediated by the cytokine TNFα. Inhibition of TNFα production and/or inhibition of TNFα release by the new analogs are assayed in macrophage cell cultures activated with LPS. This serves as another indication of the general anti-inflammatory potential of the novel compounds.
The method for macrophage cell culture growth is identical to the one described in PGE2 assay. Aliquots of the supernatants collected following stimulation with LPS were quantitated for TNFα by enzyme linked immunosorbent assay (ELISA) using HRP conjugated to anti-TNFα antibodies and […] for the colorimetric reaction. The peroxidase catalyzed color reaction was stopped by acidification and the absorbance at 450 nm is measured. The absorbance at this wavelength is proportional to the concentration of TNFα in the sample determined from a standard curve plotting the concentrations of TNFα standards versus their absorbance.

[1] = system: T1, nitric oxide synthase (NOS); experiment: Inhibition of nitric oxide synthase, fluorimetric nitrite assay in LPS-stimulated macrophage supernatants; assay type: cell-based; conditions: macrophage cell cultures
T1 construct: endogenous in cells
Method: As one aspect of the anti-oxidative potential of the novel analogs they were tested for their ability to inhibit the enzyme nitric oxide synthase (NOS). This assay can also serve as another indication of the anti-inflammatory cascade, as well as the anti-oxidative mechanisms.
The final products of NOS are Nitrite (NO2) and Nitrate (NO3). The in vitro fluorimetric assay provides an accurate method for the measurement of the Nitrite, which is the majority of NO products. The principle of the fluorimetric assay is based on the addition of DAN (2,3-diaminonaphthalene) to the aliquots of the supernatants collected from macrophage cell cultures incubated with the new analogs and stimulated with LPS. Following, NaOH was added to convert Nitrite to a fluorescent compound 1(H)-naphthtriazole. The fluorescence was measured immediately in a fluorimeter using excitation wavelength of 365 nm and an emission wavelength of 450 nm.

T1 sequence (P35228 whole entry): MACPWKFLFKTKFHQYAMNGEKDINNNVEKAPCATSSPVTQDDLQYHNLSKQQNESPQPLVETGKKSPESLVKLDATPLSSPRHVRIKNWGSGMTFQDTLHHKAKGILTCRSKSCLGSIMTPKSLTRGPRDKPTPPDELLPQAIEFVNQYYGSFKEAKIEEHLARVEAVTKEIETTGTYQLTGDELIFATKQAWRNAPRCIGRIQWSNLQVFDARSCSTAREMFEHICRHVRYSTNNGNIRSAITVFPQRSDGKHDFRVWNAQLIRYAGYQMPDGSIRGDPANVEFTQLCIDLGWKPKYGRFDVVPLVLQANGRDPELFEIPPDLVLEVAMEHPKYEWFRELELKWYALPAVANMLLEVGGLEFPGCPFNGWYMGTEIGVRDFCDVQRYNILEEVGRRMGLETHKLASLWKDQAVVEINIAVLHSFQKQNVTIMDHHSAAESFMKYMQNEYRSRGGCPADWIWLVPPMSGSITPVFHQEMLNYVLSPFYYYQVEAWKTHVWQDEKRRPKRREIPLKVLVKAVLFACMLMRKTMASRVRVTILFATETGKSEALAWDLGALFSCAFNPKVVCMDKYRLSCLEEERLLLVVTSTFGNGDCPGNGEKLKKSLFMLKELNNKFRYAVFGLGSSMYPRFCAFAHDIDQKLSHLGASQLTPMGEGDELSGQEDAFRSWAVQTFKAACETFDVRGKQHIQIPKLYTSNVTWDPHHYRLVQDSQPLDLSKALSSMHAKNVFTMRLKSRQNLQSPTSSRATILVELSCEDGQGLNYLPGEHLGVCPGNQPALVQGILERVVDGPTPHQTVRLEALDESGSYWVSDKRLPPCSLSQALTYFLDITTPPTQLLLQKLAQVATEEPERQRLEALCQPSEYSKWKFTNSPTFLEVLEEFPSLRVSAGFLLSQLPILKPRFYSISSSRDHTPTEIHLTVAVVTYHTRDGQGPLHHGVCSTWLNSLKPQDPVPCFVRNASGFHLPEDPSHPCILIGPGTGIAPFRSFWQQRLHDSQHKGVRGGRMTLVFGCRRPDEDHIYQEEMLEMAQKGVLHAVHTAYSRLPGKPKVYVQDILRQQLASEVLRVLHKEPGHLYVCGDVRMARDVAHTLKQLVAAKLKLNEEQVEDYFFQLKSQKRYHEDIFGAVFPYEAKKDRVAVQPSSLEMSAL

| SMILES | cannabimimetic activity relative to Δ-1-tetrahydrocannabinol (cannabimimetic activity) | NMDA receptor binding / affinity (in words) (NMDA receptor) | IC50 (NMDA receptor) | inhibition at 10 µM (TNFα) | inhibition at 10 µM [1] |
| --- | --- | --- | --- | --- | --- |
| CCCCCCC(C)(C)c1cc(O)c2c(c1)OC(C)(C)[C@@H]1CC=C(CO)C[C@@H]21 [HU-210] | ~100 times | – | – | – | – |
| CCCCCCC(C)(C)c1cc(O)c2c(c1)OC(C)(C)[C@H]1CC=C(CN3CCC(N4CCCC4)CC3)C[C@H]21 [211,253-000] | – | do not exhibit substantial NMDA receptor binding | > 100 µM | 0% | 27% |
| CCCCCCC(C)(C)c1cc(O)c2c(c1)OC(C)(C)[C@H]1CC=C(CN3CCC(C)CC3)CC21 (single isomer, unassigned; (+)) [211,251-000] | – | do not exhibit substantial NMDA receptor binding | > 100 µM | 0% | 37% |
